Measurements reported in patent publication US20210290784A1, “POSITRON EMISSION TOMOGRAPHY (PET) RADIOTRACERS FOR IMAGING MACROPHAGE COLONY-STIMULATING FACTOR 1 RECEPTOR (CSF1R) IN NEUROINFLAMMATION” (The Johns Hopkins University, priority 2018, published 2021).

What was measured:
CSF1R [1] = target: T1, CSF1R (Mus musculus, UniProt P09581); conditions: i.p.-LPS mice, blocker 1 mg/kg i.p., 5 min before radiotracer
T1 sequence (P09581 20-977): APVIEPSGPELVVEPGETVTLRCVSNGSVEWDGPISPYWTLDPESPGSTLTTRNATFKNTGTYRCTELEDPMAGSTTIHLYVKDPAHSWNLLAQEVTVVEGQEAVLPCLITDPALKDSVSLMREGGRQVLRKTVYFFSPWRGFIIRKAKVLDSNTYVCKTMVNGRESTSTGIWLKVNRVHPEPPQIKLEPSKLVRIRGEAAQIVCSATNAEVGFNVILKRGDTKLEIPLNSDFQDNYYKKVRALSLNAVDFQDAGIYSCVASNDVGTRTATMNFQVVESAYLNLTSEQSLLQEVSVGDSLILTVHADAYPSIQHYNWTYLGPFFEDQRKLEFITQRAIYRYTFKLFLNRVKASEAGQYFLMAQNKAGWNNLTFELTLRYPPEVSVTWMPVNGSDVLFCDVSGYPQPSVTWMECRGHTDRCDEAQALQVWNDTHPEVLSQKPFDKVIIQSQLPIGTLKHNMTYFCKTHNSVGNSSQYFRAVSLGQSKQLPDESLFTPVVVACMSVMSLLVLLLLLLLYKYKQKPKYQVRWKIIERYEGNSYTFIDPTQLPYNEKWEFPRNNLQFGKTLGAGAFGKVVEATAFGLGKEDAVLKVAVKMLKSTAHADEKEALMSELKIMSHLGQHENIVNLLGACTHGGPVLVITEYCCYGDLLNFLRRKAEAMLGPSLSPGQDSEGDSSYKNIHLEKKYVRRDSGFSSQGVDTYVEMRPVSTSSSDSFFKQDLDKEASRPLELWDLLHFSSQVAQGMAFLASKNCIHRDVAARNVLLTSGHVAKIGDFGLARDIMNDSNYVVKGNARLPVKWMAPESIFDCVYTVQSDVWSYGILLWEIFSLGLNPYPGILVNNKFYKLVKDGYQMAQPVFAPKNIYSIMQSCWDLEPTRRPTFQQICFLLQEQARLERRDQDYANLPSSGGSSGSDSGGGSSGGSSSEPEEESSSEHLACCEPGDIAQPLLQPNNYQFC

CSF1R [2] = target: CSF1R (Homo sapiens, UniProt P07333); assay: CSF1R competition binding assay, KinomeScan, DiscoverX; parameters: purchased DiscoverX; conditions: commercial assay
CSF1R (Homo sapiens, UniProt P07333), sequence (P07333 20-972, species assumed): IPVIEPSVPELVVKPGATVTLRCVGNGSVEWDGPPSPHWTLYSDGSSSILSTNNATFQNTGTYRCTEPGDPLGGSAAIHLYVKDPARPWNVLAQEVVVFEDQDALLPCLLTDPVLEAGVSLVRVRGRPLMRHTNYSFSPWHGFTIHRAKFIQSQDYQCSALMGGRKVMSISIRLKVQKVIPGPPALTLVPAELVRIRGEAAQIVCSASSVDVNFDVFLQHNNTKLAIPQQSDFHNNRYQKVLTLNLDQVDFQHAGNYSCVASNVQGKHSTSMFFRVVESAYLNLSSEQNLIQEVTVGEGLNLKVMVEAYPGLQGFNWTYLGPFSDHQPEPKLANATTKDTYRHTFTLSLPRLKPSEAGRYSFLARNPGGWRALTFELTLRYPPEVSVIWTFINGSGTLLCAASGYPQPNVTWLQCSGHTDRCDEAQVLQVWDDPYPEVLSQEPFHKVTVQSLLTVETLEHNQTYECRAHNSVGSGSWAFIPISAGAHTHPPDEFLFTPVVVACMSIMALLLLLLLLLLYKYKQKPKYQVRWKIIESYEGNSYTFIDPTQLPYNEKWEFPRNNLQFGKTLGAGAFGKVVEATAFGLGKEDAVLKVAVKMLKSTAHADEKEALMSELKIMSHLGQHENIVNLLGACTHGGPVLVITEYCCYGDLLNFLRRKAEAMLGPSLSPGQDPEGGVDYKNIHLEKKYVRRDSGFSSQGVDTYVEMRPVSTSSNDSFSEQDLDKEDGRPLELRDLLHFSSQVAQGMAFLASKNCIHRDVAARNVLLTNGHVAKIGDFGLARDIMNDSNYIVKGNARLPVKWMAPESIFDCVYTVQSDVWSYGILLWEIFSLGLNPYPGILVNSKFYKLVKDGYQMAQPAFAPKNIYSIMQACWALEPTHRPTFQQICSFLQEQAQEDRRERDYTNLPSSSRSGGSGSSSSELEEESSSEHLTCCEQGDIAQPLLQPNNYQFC

microglia = conditions: chronic treatment of mice; cited from earlier work
TSPO = target: T2, TSPO (Rattus norvegicus, UniProt P16257); conditions: LPS-treated rats; cited from earlier work
T2 construct: host or cells: LPS-treated rats (cited study)

CSF1R Human RTK Kinase = target: T3, CSF1R Human RTK Kinase (Homo sapiens, UniProt P07333); assay: CSF1R Human RTK Kinase, Enzymatic Radiometric Assay, Eurofins; type: biochemical; conditions: commercial assay
T3 construct: purchased Eurofins
T3 sequence (P07333 20-972): as the sequence (P07333 20-972, species assumed) above

SMILES: CN1CCN(c2ccc(NC(=O)c3ccc(C#N)o3)c(N3CCCCC3)c2)CC1 [1a JHU11744, 5-Cyano-N-(4-(4-methylpiperazin-1-yl)-2-(piperidin-1-yl)phenyl)furan-2-carboxamide]
- blocking of [11C]CPPC SUVR uptake by CSF1R inhibitor (CSF1R [1]): significantly decreased the uptake to the control level

SMILES: CN1CCN(c2ccc(NC(=O)c3cccc(F)n3)c(N3CCCCC3)c2)CC1 [1i JHU11767, 6-Fluoro-N-(4-(4-methylpiperazin-1-yl)-2-(piperidin-1-yl)phenyl)picolinamide]
- Kd (CSF1R [2]): 0.03 µM

SMILES: FC(F)(F)c1ccc(CNc2ccc(Cc3c[nH]c4ncc(Cl)cc34)cn2)cn1 [PLX3397, pexidartinib]
- depletion of microglia (microglia): 90%

SMILES: CCC(C)N([11CH3])C(=O)c1cc2ccccc2c(-c2ccccc2Cl)n1 (stereo not drawn) [[^11C]PK11195]
- BP value (TSPO): 0.47

SMILES: CN1CCN(c2ccc(NC(=O)c3cc(C#N)co3)c(N3CCCCC3)c2)CC1 [1g JHU11765, 4-Cyano-N-(4-(4-methylpiperazin-1-yl)-2-(piperidin-1-yl)phenyl)furan-2-carboxamide]
- Kd (CSF1R [2]): > 1 µM

SMILES: CC1CCN(c2cc(N3CCN(CCF)CC3)ccc2NC(=O)c2cc(C#N)c[nH]2)CC1 [1l JHU11764, 4-Cyano-N-(4-(4-(2-fluoroethyl)piperazin-1-yl)-2-(4-methylpiperidin-1-yl)phenyl)-1H-pyrrole-2-carboxamide]
- IC50 (CSF1R Human RTK Kinase): 0.00314 µM

SMILES: CN1CCN(c2ccc(NC(=O)c3coc(C#N)c3)c(N3CCCCC3)c2)CC1 [1h JHU11766, 5-Cyano-N-(4-(4-methylpiperazin-1-yl)-2-(piperidin-1-yl)phenyl)furan-3-carboxamide]
- Kd (CSF1R [2]): > 1 µM

SMILES: N#Cc1ccc(C(=O)Nc2ccc(N3CCN(CCF)CC3)cc2N2CCCCC2)o1 [1k JHU11763, 5-Cyano-N-(4-(4-(2-fluoroethyl)piperazin-1-yl)-2-(piperidin-1-yl)phenyl)furan-2-carboxamide]
- Kd (CSF1R [2]): 0.032 µM
- IC50 (CSF1R Human RTK Kinase): 0.0129 µM
